Measurements as given in US20240425529A1, “BORIC ACID DERIVATIVE” (SHOUYAO HOLDINGS (BEIJING) CO., LTD., priority 2021, published 2024).

Experiments:
LMP7 [1] = biological target: T1, LMP7 (Homo sapiens, UniProt P28062); assay: Enzymatic inhibitory activity on LMP7 (MOLT-4 cell lysate, Ac-ANW-AMC substrate); format: biochemical; settings: 1 hour pre-incubation
T1 construct: using MOLT-4 cell lysate as the enzyme source of LMP7; endogenous in cells; host or cells: MOLT-4 (human acute lymphoblastic leukemia cells)
Text: LMP7 is a catalytic subunit of immunoproteasomes. In this experiment, an enzymatic detection platform was established using its hydrolytic enzyme activity and used for compound activity detection. Using Ac-ANW-AMC (Bonston Biochem, Cat #S-320) as a substrate for LMP7, the amount of fluorescent group AMC (7-amino-4-methylcoumarin) released after hydrolysis can reflect the enzymatic activity. MOLT-4 cells are human acute lymphoblastic leukemia cells and have been identified as cells with high expression of LMP7. We established an enzymatic detection method for compound inhibition on LMP7 using MOLT-4 cell lysate as the enzyme source of LMP7 and detected the compound inhibitory activity (half inhibitory concentration, IC50).
(§1) MOLT-4 cells were cultured in a 75 cm^2 cell culture flask (Corning) (37° C., 95% air, and 5% CO2) with RPMI-1640 (Biological Industries) medium containing 10% fetal bovine serum (Biological Industries) and 1% Pen Strep (Gibco) and passaged 2-3 times one week. 1×10^7 MOLT-4 cells were collected, resuspended in 1 ml of PBS (Solarbio), and centrifuged at 3000 rpm for 5 minutes. The supernatant was aspirated off. The cells were resuspended in 500 μl of lysis buffer (20 mM Tris, pH 8.0, 5 mM EDTA, plus Protease inhibitor (1:1000) and Phosphatase Inhibitor (1:100) when used) and left on ice for 30 minutes. The cells were broken by supersonic technique, 0.5 S on, 0.5 S off, for 2.5 S. The centrifuge was performed at 12000 rpm, 4° C. for 10 minutes. The supernatant was the cell lysate and protein quantification was performed by using the BCA method (Thermo, #23225).
Compounds were diluted in a 5-fold gradient with 100% DMSO for a total of 9 concentrations: 2 W for each concentration was added to a 48-μl reaction buffer (20 mM Tris, pH 8.0, 0.5 mM EDTA) and mixed well as 4* compound (final concentrations: 2000, 400, 80, 16, 3.2, 0.64, 0.128, 0.0256, and 0 nM) for later use. A reaction buffer was used to prepare 4* MOLT-4 cell lysate at a final concentration of 20 ng/μl and 2*Ac-ANW-AMC at a final concentration of 100 µM. 5 μl of 4* compound was added to a 384-well plate (OptiPlate-384, purchased from PerkinElmer), added with 5 W of 4* cell lysate, centrifuged, and reacted in an incubator at 23° C. for 1 hour. 10 W of 2* Ac-ANW-AMC was added and the reaction was started by centrifugation at 23° C. in the dark for 2 hours. After completion of the reaction, the signal value (excitation wavelength 345 nm/emission wavelength 445 nm) was read on the CLARIO star^Plus (purchased from BMG LRBTECH). Enzyme activity was determined at 9 concentrations for each compound, and data were processed using the GraphPad Prism software to calculate the half inhibitory concentration of the compound on LMP7, i.e. the IC50 value.

β5 = biological target: T2, β5 (Homo sapiens, UniProt P28074); assay: Enzymatic inhibitory activity on β5 (HEK-293 cell lysate, Ac-WLA-AMC substrate); format: biochemical; settings: 1 hour pre-incubation
T2 construct: using HEK-293 cell lysate as the enzyme source of D5; endogenous in cells; host or cells: HEK-293 (human embryonic kidney cells)
Text: β5 is a catalytic subunit of immunoproteasomes. In this experiment, an enzymatic detection platform was established using its hydrolytic enzyme activity and used for compound activity detection. Using Ac-WLA-AMC (Bonston Biochem, Cat #5-330) as a substrate for D5, the amount of fluorescent group AMC (7-amino-4-methylcoumarin) released after hydrolysis can reflect the enzymatic activity. […] We established an enzymatic detection method for compound inhibition on D5 using HEK-293 cell lysate as the enzyme source of D5 and detected the compound inhibitory activity (half inhibitory concentration, IC50). The enzymatic inhibitory activity of compounds against D5 was used as a measure index of compound selectivity.
as §1, with “HEK-293” for “MOLT-4”, “DMEM” for “RPMI-1640”, “performed” for “performed by”
Compounds were diluted in a 5-fold gradient with 100% DMSO for a total of 9 concentrations. 2 W for each concentration was added to a 48-μl reaction buffer (20 mM Tris, pH 8.0, 0.5 mM EDTA) and mixed well as 4* compound (final concentrations: 100000, 20000, 4000, 800, 160, 32, 6.4, 1.28, and 0 nM) for later use. A reaction buffer was used to prepare 4*HEK-293 cell lysate at a final concentration of 25 ng/μl and 2*Ac-WLA-AMC at a final concentration of 20 μM. 5 W of 4* compound was added to a 384-well plate (OptiPlate-384, purchased from PerkinElmer), added with 5 W of 4*HEK-293 cell lysate, centrifuged, and reacted in an incubator at 23° C. for 1 hour. 10 W of 2* Ac-WLA-AMC was added and the reaction was started by centrifugation at 23° C. in the dark for 2 hours. After completion of the reaction, the signal value (excitation wavelength 345 nm/emission wavelength 445 nm) was read on the CLARIO star^Plus (purchased from BMG LRBTECH). Enzyme activity was determined at 9 concentrations for each compound, and data were processed using the GraphPad Prism software to calculate the half inhibitory concentration of the compound on D5, i.e. the IC50 value.

LMP7 [2] = biological target: T1, LMP7; assay: Cytological inhibitory activity on LMP7 in MOLT-4 cells; format: cell-based; settings: incubation for 2 hours with compound, read-out: Cytological activity data LMP7 Activity (MOLT-4Cell)
Method: MOLT-4 are human acute lymphoblastic leukemia cells and have been identified as cells with high expression of LMP7. In this experiment, the compounds were pre-incubated with MOLT-4, and Ac-ANW-AMC (BonstonBiochem, Cat #S-320) was used as the substrate of LMP7 to establish the detection method for the enzymatic activity of LMP7 in cells and detect the compound inhibitory activity (half inhibitory concentration, IC50).
Cells were plated in a 24-well plate (Corning) at a concentration of 1.5×10^5/ml per well. The next day compounds were prepared and diluted in a 5-fold gradient from 2 mM in 100% DMSO for a total of 8 concentrations. 2 μl for each concentration of the compound was added to a 1-ml cell culture medium, supplemented with 1 ml of RPMI-1640 only (final FBS concentration 5%, v/v). The compounds were mixed with the cells. After incubation for 2 hours in the incubator, the cells were centrifuged at 2000 rpm for 8 minutes to discard the supernatant. The cells were washed once with 2 ml PBS (Solarbio), and centrifuged again to discard the supernatant. The cells were resuspended in 100 μl of lysis buffer (20 mM Tris, pH 8.0, 5 mM EDTA, plus Protease inhibitor (1: 100) and Phosphatase Inhibitor (1:100) when used) and left in a 4° C. refrigerator for 45 minutes.
After 2 min. of centrifuge at 2000 rpm, the lysate was transferred from the 24-well plate to a 96-well plate, and centrifuged at 2000 rpm, 4° C., for 15 min. The supernatant was the lysate. Protein quantification was performed using the BCA method (Thermo, #23225). A 2* lysate was prepared with the reaction buffer (20 mM Tris, pH 8.0, 0.5 mM EDTA) at a final concentration of 20 ng/μl. 2* Ac-ANW-AMC was prepared with the reaction buffer at a final concentration of 100 μM. 10 µl of 2* lysate was added to a 384-well plate (OptiPlate-384, purchased from PerkinElmer), and added with 10 W of 2* Ac-ANW-AMC. The reaction was started by centrifugation at 23° C. in the dark for 1 hour. After completion of the reaction, the signal value (excitation wavelength 345 nm/emission wavelength 445 nm) was read on the CLARIO starPlus (purchased from BMG LRBTECH). Enzyme activity was determined at 8 concentrations for each compound, and data were processed using the GraphPad Prism software to calculate the half inhibitory concentration of the compound on LMP7 hydrolase in MOLT-4 cells, i.e. the IC50 value.

| IC50 (LMP7 [1]) | IC50 (β5) | IC50 (LMP7 [2]) | Compound |
| --- | --- | --- | --- |
| 3.81 nM | 126 nM | 1.65 nM | CC1(C)[C@@H]2C[C@H]3OB([C@H](Cc4coc5ccccc45)NC(=O)C(=O)Nc4ccccn4)O[C@@]3(C)[C@H]1C2 [Ex. 23, (R)-(2-(benzofuran-3-yl)-1-(2-oxo-2-(pyridin-2-ylamino)acetamido)ethyl) boronic acid (1S,2S,3R,5S)-(+)-pinane-2,3-diol ester] |
| 1.43 nM | 54.6 nM | 6.84 nM | O=C(Nc1ccc(F)cc1F)C(=O)N[C@@H](Cc1coc2ccccc12)B(O)O [Ex. 55, (R)-(2-(benzofuran-3-yl)-1-(2-oxo-2-(2,4-difluorophenylamino)acetamido)ethyl)boronic acid] |
| 7.65 nM | 154 nM | 5.94 nM | O=C(N[C@@H](Cc1coc2ccccc12)B(O)O)C(=O)N[C@@H]1C[C@H]2CC[C@@H]1O2 [Ex. 1, ((R)-1-(2-(((1S,2R,4R)-7-oxabicyclo[2.2.1]heptan-2-yl)amino)-2-oxoacetamido)-2-(benzofuran-3-yl)ethyl)boronic acid] |
| 4.91 nM | 54.2 nM | 15.9 nM | O=C(N[C@@H]1CCOC1)C(=O)N[C@@H](Cc1coc2ccccc12)B(O)O [Ex. 44, ((R)-2-(benzofuran-3-yl)-1-(2-oxo-2(((R)-tetrahydrofuran-3-yl)amino)acetamido)ethyl) boronic acid] |
| 1.11 nM | 12.2 nM | 0.69 nM | CC1(C)OB([C@H](Cc2coc3ccccc23)NC(=O)C(=O)Nc2cnccn2)OC1(C)C [Ex. 19, N-((1R)-2-(1-benzofuran-3-yl)-1-(tetramethyl-1,3,2-dioxaborolan-2-yl)ethyl)-N-(pyrazin-2-yl)oxalamide] |
| 2.42 nM | 34.1 nM | 1.26 nM | O=C(O)CC1(CC(=O)O)OB([C@H](Cc2coc3ccccc23)NC(=O)C(=O)Nc2cnccn2)OC1=O [Ex. 18, (R)-2,2′-(2-(2-(benzofuran-3-yl)-1-(2-oxo-2-(pyrazin-2-ylamino)acetamido)ethyl)-5-oxo-1,3,2-dioxaborolane-4,4-diyl)diacetic acid] |
| 4.58 nM | 22.5 nM | 11.1 nM | O=C(Nc1cncnc1)C(=O)N[C@@H](Cc1coc2ccccc12)B(O)O [Ex. 48, (R)-(2-(benzofuran-3-yl)-1-(2-oxo-2-(pyrimidin-5-ylamino)acetamido)ethyl) boronic acid] |
| 7.83 nM | 93.8 nM | 2.29 nM | Cc1cnc(NC(=O)C(=O)N[C@@H](Cc2coc3ccccc23)B(O)O)cn1 [Ex. 46, (R)-(2-(benzofuran-3-yl)-1-(2-oxo-2-((5-methylpyrazin-2-yl)amino)acetamido)ethyl)boronic acid] |
| 6.27 nM | 115 nM | 3.92 nM | O=C(Nc1cc(Cl)ccc1Cl)C(=O)N[C@@H](Cc1coc2ccccc12)B(O)O [Ex. 24, ((R)-2-(benzofuran-3-yl)-1-(2-oxo-2-((2,5-dichlorophenyl)amino)acetamido)ethyl)boronic acid] |
| 3.13 nM | 58.7 nM | 4.06 nM | O=C(Nc1nccs1)C(=O)N[C@@H](Cc1coc2ccccc12)B(O)O [Ex. 13, (R)-(2-(benzofuran-3-yl)-1-(2-oxo-2-(thiazol-2-ylamino)acetamido)ethyl) boronic acid] |
| 1.18 nM | 28.5 nM | 1.35 nM | CC1(C)COB([C@H](Cc2coc3ccccc23)NC(=O)C(=O)Nc2cnccn2)OC1 [Ex. 71] |
| 5.96 nM | 357 nM | 7.91 nM | CN(C)c1ccnc(NC(=O)C(=O)N[C@@H](Cc2coc3ccccc23)B(O)O)c1 [Ex. 50, (R)-(2-(benzofuran-3-yl)-1-(2-oxo-2-((4-dimethylaminopyridin-2-yl)amino)acetamido)ethyl)boronic acid] |
| 4.27 nM | 722 nM | 46.6 nM | COC(=O)C(=O)N[C@@H](Cc1coc2ccccc12)B1O[C@@H]2CC3C[C@@H](C3(C)C)[C@]2(C)O1 [Ex. 61, (R)-(2-(benzofuran-3-yl)-1-(2-oxo-2-methoxyacetamido)ethyl)boronic acid (1S,2S,3R,5S)-(+)-pinane-2,3-diol ester] |
| 1.24 nM | 34.8 nM | 1.1 nM | CC1COB([C@H](Cc2coc3ccccc23)NC(=O)C(=O)Nc2cnccn2)O1 (stereo partly drawn) [Ex. 68] |
